The structures appear in SMILES notation.

A word on the IC50: it is the concentration needed to halve the response being measured.

In this assay the target is T1, human recombinant, purified wild type His-B-Raf protein kinase (Homo sapiens, UniProt P15056).
T1 construct: His
T1 sequence (P15056 whole entry): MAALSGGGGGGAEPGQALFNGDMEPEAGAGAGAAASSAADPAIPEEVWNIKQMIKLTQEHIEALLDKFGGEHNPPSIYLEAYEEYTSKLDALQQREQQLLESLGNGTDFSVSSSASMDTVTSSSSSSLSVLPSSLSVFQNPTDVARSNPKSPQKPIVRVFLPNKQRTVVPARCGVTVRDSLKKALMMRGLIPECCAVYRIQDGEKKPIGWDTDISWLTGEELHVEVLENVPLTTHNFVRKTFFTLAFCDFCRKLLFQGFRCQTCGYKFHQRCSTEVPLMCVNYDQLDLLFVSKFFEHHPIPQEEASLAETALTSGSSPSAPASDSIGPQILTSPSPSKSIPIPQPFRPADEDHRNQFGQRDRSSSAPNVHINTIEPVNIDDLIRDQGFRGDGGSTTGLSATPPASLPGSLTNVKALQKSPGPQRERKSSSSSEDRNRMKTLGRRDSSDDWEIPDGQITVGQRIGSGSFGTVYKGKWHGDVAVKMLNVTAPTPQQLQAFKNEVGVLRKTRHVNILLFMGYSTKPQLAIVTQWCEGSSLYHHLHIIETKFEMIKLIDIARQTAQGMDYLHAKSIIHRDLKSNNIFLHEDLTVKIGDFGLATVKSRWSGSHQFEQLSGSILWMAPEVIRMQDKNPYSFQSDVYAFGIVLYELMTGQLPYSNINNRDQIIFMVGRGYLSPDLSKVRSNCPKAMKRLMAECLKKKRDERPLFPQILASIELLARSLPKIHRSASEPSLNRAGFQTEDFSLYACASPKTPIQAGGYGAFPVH
Nature of the assay: B-Raf In Vitro ELISA Assay. Format: biochemical. To be noted: phosphorylation of MEK1; 2.5 nM B-Raf, 0.15 μM MEK1, 10 μM ATP. Here is the method:
B-Raf In Vitro ELISA Assay
Activity of human recombinant, purified wild type His-B-Raf protein kinase was determined in vitro using an enzyme-linked immunosorbent assay (ELISA) assay format, which measures phosphorylation of the B-Raf substrate, human recombinant, purified His-derived (detagged) MEK1. The reaction utilized 2.5 nM B-Raf, 0.15 μM MEK1 and 10 μM adenosine triphosphate (ATP) in 40 mM N-(2-hydroxyethyl)piperazine-N′-(2-ethanesulfonic acid hemisodium salt (HEPES), 5 mM 1,4-dithio-DL-threitol (DTT), 10 mM MgCl2, 1 mM ethylenediaminetetraacetic acid (EDTA) and 0.2M NaCl (1×HEPES buffer), with or without compound at various concentrations, in a total reaction volume of 25 μl in 384 well plates. B-Raf and compound were preincubated in 1×HEPES buffer for 1 hour at 25° C. Reactions were initiated with addition of MEK1 and ATP in 1×HEPES buffer and incubated at 25° C. for 50 minutes and reactions stopped by addition of 10 μl 175 mM EDTA (final concentration 50 mM) in 1×HEPES buffer. 5 μl of the assay mix was then diluted 1:20 into 50 mM EDTA in 1×HEPES buffer, transferred to 384 well black high protein binding plates and incubated for 12 h at 4° C. Plates were washed in tris buffered saline containing 0.1% Tween20 (TBST), blocked with 50 μl Superblock (Pierce) for 1 hour at 25° C., washed in TBST, incubated with 50 μl rabbit polyclonal anti-phospho-MEK antibody (Cell Signaling) diluted 1:1000 in TBS for 2 h at 25° C., washed with TBST, incubated with 50 μl goat anti-rabbit horseradish peroxidase-linked antibody (Cell Signaling) diluted 1:2000 in TBS for 1 hour at 25° C. and washed with TBST. 50 μl of fluorogenic peroxidase substrate (Quantablu—Pierce) was added and following incubation for 45-60 mins, 50 μl QuantabluSTOP (Pierce) was added. Blue fluorescent product was detected at excitation 325 nm and emission 420 nm using a TECAN Ultra plate reader. Data was graphed and IC50s calculated using Excel Fit (Microsoft).
As for `Cc1ccc(NC(=O)c2cccc(C(C)(C)C#N)c2)cc1Nc1ccc2ncn(CCCN3CCOCC3)c(=O)c2c1` [Example 7, 3-(1-Cyano-1-methylethyl)-N-(4-methyl-3-{[3-(3-morpholin-4-ylpropyl)-4-oxo-3,4-dihydroquinazolin-6-yl]amino}phenyl)-benzamide], the IC50 was 347 nM.
As for `Cc1ccc(NC(=O)c2cccc(C(C)(C)C#N)c2)cc1N(C)c1ccc2ncn(C)c(=O)c2c1` [Example 33, 3-(Cyano-dimethyl-methyl)-N-{4-methyl-3-[methyl-(3-methyl-4-oxo-3,4-dihydro-quinazolin-6-yl)-amino]-phenyl}-beazamide], the IC50 amounted to 1930 nM.
For `Cc1nc2ccc(Nc3cc(NC(=O)c4cccc(C(C)(C)C#N)c4)ccc3C)cc2c(=O)[nH]1` [Example 4, 3-(1-Cyano-1-methylethyl)-N-{4-methyl-3-[(2-methyl-4-oxo-3,4-dihydroquinazolin-6-yl)amino]phenyl}-benzamide], the IC50 is 186 nM.
